Measurements: patent US20230065562A1, “DUAL CONTROLS FOR THERAPEUTIC CELL ACTIVATION OR ELIMINATION” (Bellicum Pharmaceuticals, Inc., priority 2015, published 2023)

Columns and labels:
293 cells = assay: SEAP assay: iMC (tandem FKBP) scaffold plus FRBL2-Caspase-9; format: cell-based; settings: tandem FKBPs (iMC) present
Description: FIGS. 16A and 16B are line graphs showing that tandem FKBP scaffold mediates FRBL2. Caspase activation in the presence of rapalogs. FIG. 16A. HEK-293 cells were transfected with 1 μg each of SRα-SEAP reporter plasmid, Δmyr.iMC.2A-anti-CD19.CAR.CD3ζ (pBP0608), and FRBL2. Caspase-9 (pBP0467). […] After ON incubation, cell supernatants were assayed for SEAP activity, as previously described. FIG. 16B. Similar to the experiment described in (FIG. 16A), except that cells were transfected with a membrane-localized (myristoylated) iMC.2A-CD19.CAR.CD3ζ (pBP0609), instead of non-myristoylated Δmyr.iMC.2A-CD19.CAR.CD3ζ (pBP0608).
In a second test for rapalog-mediated scaffold-based activation of Caspase-9, 293 cells were transiently transfected with SRα-SEAP reporter plasmid, plus myristoylated or non-myristoylated inducible iMC co-expressed with 1st generation anti-CD19 CAR, plus FRBL2-fused Caspase-9 (plasmid pBP0467) (FIG. 16).

CD123+ THP-1 tumor cells = assay: NSG tumor xenograft model, THP-1-EGFPluc, iMC-CD123.ζ-modified T cells with Rim; format: in vivo, mouse; settings: costimulation by systemic rimiducid administration (1 mg/kg i.p. days 0 and 15)
Description: Animal experiments: In vivo efficacy of iMC-CD123.ζ-modified T cells was assessed using an immune-deficient NSG tumor xenograft model. One million EGFPluc-expressing CD123^+ THP-1 tumor cells were injected i.v. into the animals, followed by a single i.v. injection on day 7 with varying non-transduced or iMC-CD123.ζ-modified T cells. Groups receiving CAR-T cells subsequently received i.p. injections of Rim (1 mg/kg) or vehicle only on days 0 and 15 post-T cell injection. Animals were evaluated for THP-1-EGFPluc tumor burden and weight change on a weekly basis using IVIS bioluminescent imaging (BLI) and for T cell persistence by flow cytometry and qPCR at day 30 post-T cell injection.
FIG. 114. (A) PBMCs were activated and transduced with retrovirus including the CD123 iMC-CARζ vector. Twelve days after transduction, CAR expression was determined using anti-Q-bend10 antibody before injection into mice. […] (C) THP1-GFP.Fluc growth was measured using IVIS bioluminescence. (D, E) On day 30, mice were sacrificed and spleens were analyzed for the presence of CAR-T cells by flow cytometry and vector copy number assay.
(B) On day 29, mice were sacrificed and spleens were analyzed for the presence of CAR-T cells by vector copy number assay.

transduced T cells = assay: T cell caspase assay (IncuCyte, caspase 3/7 green reagent); format: cell-based, human
Description: To enable detection of apoptosis using the IncuCyte instrument, 2 μM of IncuCyte™ Kinetic Caspase-3/7 Apoptosis reagent (Essen Bioscience, 4440) were add to each well to reach a total volume of 200 μl. The plates were centrifuged for 5 min at 400×g and placed inside the IncuCyte (Dual Color Model 4459) to monitor green fluorescence every 2-3 hours for a total of 48 hours at 10× objective. Image analysis was performed using the “Tcells_caspreagent_phase_green_10×_MLD” processing definition. The “Total Green Object Integrated Intensity” metric is used to quantify caspase activation. Each condition was performed in duplicates and each well was imaged at 4 different locations.
To enable detection of apoptosis using the IncuCyte instrument, 2 μM of IncuCyte™ Kinetic Caspase-3/7 Apoptosis reagent (Essen Bioscience, 4440) was added to each well to reach a total volume of 200 μl. The plates were centrifuged for 5 min at 400×g and placed inside the IncuCyte (Dual Color Model 4459) to monitor green fluorescence every 2-3 hours for a total of 48 hours at 10× objective. Image analysis was performed using the “Tcells_caspreagent_phase_green_10×_MLD” processing definition. The “Total Green Object Integrated Intensity” metric and the “Phase Object Confluence (Percent)” were used to quantify caspase activation. Each condition was performed in duplicate and each well was imaged at 4 different locations.

293T cells = assay: SeAP reporter assay: iC9 without FRB-Caspase-9 (controls); format: cell-based; settings: iC9 with control vector or FRB without caspase fusion
Description: (FIGS. 39 and 40). iC9 (FKBPv12-Caspase-9) was cotransfected with a control vector expressing only an epitope tag (FIG. 39) or a vector containing FRB without caspase fusion, but instead with a short, irrelevant tag (FIG. 40).
FIG. 39—FRB-Caspase-9 is required for a rapamycin-induced cell death switch. 293T cells were transfected with SRα-SeAP (pBP0046), pS-NLS-E and pSH1-FKBPv12-Caspase9 (pBP0044).
FIG. 40—Caspase-9 fusion with FRB is required for a rapamycin-induced cell death switch. 293T cells were transfected with SRα-SeAP (pBP0046), pSH1-FRBL-VP16 (pBP0731) (4) and pSH1-FKBPv12-Caspase9 (pBP0044). […] Loss of reporter activity is a proxy for the loss of cell viability. Reporter activity is expressed as a percentage of the average of 8 wells containing no drug. Drug-containing wells were assayed in triplicate wells.

[1] = tested on: transduced T cells (human PBMCs); assay: IL-6 ELISA as indicator of MC activity in transduced T cells; format: cell-based
[2] = tested on: HLA-A2+PRAME+ U2OS osteosarcoma; assay: iMC-PRAME TCR cytotoxicity and IL-2 secretion against U2OS; format: cell-based
Description: The Go156 TCR is a negative control TCR.

[3] = tested on: SK-N-SH neuroblastoma cells; assay: Trans-well assay, HLA class I on tumor cells; format: cell-based; settings: antigen-independent, FIG. 118B
Description: FIG. 118: (A) Trans-well assay set-up. (B) Cytokines secreted by transduced T cells in the top well upregulate HLA class I on the surface of SK-N-SH neuroblastoma cells in an antigen-independent, but iMC- and rimiducid-dependent manner.

## CC[C@H](C(=O)N1CCCC[C@H]1C(=O)O[C@H](CCc1ccc(OC)c(OC)c1)c1cccc(OCC(=O)NCCNC(=O)COc2cccc([C@@H](CCc3ccc(OC)c(OC)c3)OC(=O)[C@@H]3CCCCN3C(=O)[C@@H](CC)c3cc(OC)c(OC)c(OC)c3)c2)c1)c1cc(OC)c(OC)c(OC)c1 [rimiducid]
293 cells
  activation of FRBL2-Caspase-9: not activated
CD123+ THP-1 tumor cells
  eradication of CD123+ leukemic cells by iMC-CARζ T cells: efficiently eradicated
Transduced T cells; 20 nM rimiducid
  dimerization/activation of FKBP.FRB.Δcasp9 (iRC9): unable to induce dimerization
Transduced T cells; MC-Rap + CAR + iC9 constructs
  concentration at which iC9 was observed to be activated: < 100 µM
293T cells
  cell death (loss of SeAP reporter) without FRB-Caspase-9: effectively permitted homodimerization and induction of Caspase-9
[1]; 24 hours
  MC activity (secreted IL-6) in iMC+CARζ-T cells: stimulated strongly
[1]; pBP1440, 24 hours
  MC activity (secreted IL-6) in MC-rap-T cells: not stimulated
[2]; FIG. 119A
  iMC-PRAME TCR-mediated cytotoxicity against U2OS: rimiducid-independent
[2]; FIG. 119B
  IL-2 secretion, PRAME TCR with rimiducid-driven iMC costimulation, U2OS: maximal IL-2 secretion
[3]
  upregulation of HLA class I on the surface of SK-N-SH cells by cytokines of transduced T cells: rimiducid-dependent
